Data from patent publication US7615564B2, “Isoquinoline derivatives having kinasae inhibitory activity and drugs containing the same” (Kirin Beer Kabushiki Kaisha, priority 2002, dated 2009).
Marks after values point to notes of the source that are not given here.

Legend:
[1] = system: Mouse-derived CCR2 overexpressing human-derived histiocyte lymphoma (U937/CCR2); assay: Leukocyte migration inhibitory activity (MCP-1 induced migration, CHEMOTAXICELL); assay type: cell-based; settings: U-937, test compound concentration 10 μg/ml, MCP-1 ligand, migration 1 hr
Procedure: Mouse-derived CCR2 overexpressing human-derived histiocyte lymphoma (U937/CCR2), was suspended in a 0.1% BSA-containing RPMI 1640 medium, to which a test compound had been added (5×10^6/ml), and the suspension was incubated for 20 min. A chemical solution (500 μl) (0.1% BSA-containing RPMI 1640 medium DMSO 1%), to which an MCP-1 ligand (1 μM) and the test compound had been added, was added to a 24-well plate. CHEMOTAXICELL was put thereon, and 200 μl of the cell suspension was added to the top layer, followed by migration under a 5% CO2 atmosphere at 37° C. for one hr. The number of cells, which had migrated to the lower chamber, was counted with a particle count analyzer (CDA-500, SYSMEX CORPORATION), and the percentage migration inhibition was calculated by the following equation: Migration inhibition (%)=(1−number of migrated cells in the presence of test compound/number of migrated cells in the absence of test compound)×100

[2] = molecular target: T1, Recombinant Rho kinase (fused protein composed of bovine Rho kinase catalytic region and glutathione S-transferase) (Bos taurus, UniProt Q28021); assay: Rho kinase inhibitory activity (phosphorylation of S6 231-239 substrate with γ32P-ATP); assay type: biochemical; settings: concentration inhibiting substrate phosphorylation by 50%
T1 construct: fused protein composed of bovine Rho kinase catalytic region and glutathione S-transferase; glutathione S-transferase (GST); made in house; host or cells: insect cells infected with baculovirus
Procedure: This permits the substrate to be labeled with the radioisotope.
Thereafter, the substrate was adsorbed to a filter paper. ATP was washed away with a phosphoric acid solution, and the amount of the phosphorylated substrate was then measured with a liquid scintillation counter.

Rho kinase = molecular target: T2, Rho kinase (Bos taurus, UniProt Q28021); assay: Ex vivo experiment: Rho kinase inhibition by serum of orally dosed SD rats; assay type: in vivo, rat; settings: hydrochloride 30 mg/kg oral, SD rats (N=4), serum diluted 8 times
T2 construct: fused protein composed of bovine Rho kinase catalytic region and glutathione S-transferase; glutathione S-transferase (GST); made in house; host or cells: insect cells infected with baculovirus
Procedure: Water or a solution of a hydrochloride salt of a test compound (30 mg/kg) in physiological saline was orally administered to SD rats (N=4). […] The serum was diluted 8 times with physiological saline and was added to Rho kinase, substrate, and labeled ATP according to the method described in Pharmacological Test Example 1, and the amount of the phosphorylated substrate was determined. Rho kinase inhibition was calculated according to the following equation: Inhibition (%)=(1−amount of substrate in the case of test compound administration/amount of substrate in the case of water administration)×100

[3] = system: Spontaneously hypertensive male rats (SHR); assay: Blood pressure depression activity in spontaneously hypertensive rats; assay type: in vivo, rat; settings: hydrochloride 30 mg/kg oral; systolic pressure 3 to 4 hr after administration; ± standard error, four SHRs
Procedure: Spontaneously hypertensive male rats (SHR, Charles River Japan, Inc.) of 15 weeks old were provided. A solution of a hydrochloride of a compound of Example 45 or 46 (30 mg/kg) in purified water was orally administered to the rats. The systolic pressure of SHR was measured immediately before the administration of the test compound and 3 to 4 hr after the administration of the test compound. The percentage blood pressure depression was calculated by the following equation: Blood pressure depression (%)={(blood pressure before administration of test compound−blood pressure after administration of test compound)/blood pressure before administration of test compound}×100
The blood pressure depression was expressed in terms of the percentage blood pressure depression and the standard error for four SHRs.

[4] = system: anti-GBM nephritis model using WKY rats; assay: Proteinuria amelioration activity for anti-GBM nephritis model using WKY rats; assay type: in vivo, rat; settings: mean ± standard error, 6 rats; for Number of cells (ED-1 positive cells per glomerulus): hydrochloride 30 mg/kg oral twice a day, kidney four days after antibody
Procedure: An anti-GBM antibody produced by immunizing domestic rabbits with a rat-derived GBM fraction was caudointravenously administered to WKY male rats of 8 weeks old to induce nephritis. For 3 days from the time 24 hr after the administration of the antibody, a solution of each of the hydrochlorides prepared in Examples 45 and 46 in purified water was orally administered at a dose of 30 mg/kg twice a day. Three days after the administration of the antibody, twenty-four-hours urine was collected to determine the protein level of urine.
Four days after the administration of the antibody, the rats were sacrificed by exsanguination, and the kidney was then harvested and was fixed in 4% paraformaldehyde to prepare a specimen for staining. Next, the specimen thus obtained was immunostained using a mouse-anti-rat macrophage monoclonal antibody (ED-1). The number of ED-1 positive cells per glomerulus was counted.
Likewise, an anti-GBM antibody was caudointravenously administered to WKY male rats of 7 weeks old to induce nephritis. For 4 weeks from the time 24 hr after the administration of the antibody, a solution of the hydrochloride prepared in each of Examples 45 and 46 in purified water was orally administered at a dose of 30 mg/kg twice a day. Four weeks after the administration of the antibody, twenty-four-hours urine was collected to determine the protein level of urine.

[5] = blood collection 4 hr after administration
[6] = hydrochloride 30 mg/kg oral twice a day for 4 weeks, 24-hr urine four weeks after antibody
[7] = hydrochloride 30 mg/kg oral twice a day for 3 days, 24-hr urine three days after antibody

T1 sequence (Q28021 92-354 limits assumed): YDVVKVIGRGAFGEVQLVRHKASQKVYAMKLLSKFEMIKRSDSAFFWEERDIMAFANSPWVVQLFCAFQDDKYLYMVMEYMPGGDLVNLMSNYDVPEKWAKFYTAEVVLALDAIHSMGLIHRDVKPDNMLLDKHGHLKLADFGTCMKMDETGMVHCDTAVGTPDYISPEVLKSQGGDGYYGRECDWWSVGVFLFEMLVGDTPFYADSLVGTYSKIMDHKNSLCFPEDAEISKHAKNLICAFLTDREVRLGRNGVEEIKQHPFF
T2 sequence (Q28021 6-553 limits assumed): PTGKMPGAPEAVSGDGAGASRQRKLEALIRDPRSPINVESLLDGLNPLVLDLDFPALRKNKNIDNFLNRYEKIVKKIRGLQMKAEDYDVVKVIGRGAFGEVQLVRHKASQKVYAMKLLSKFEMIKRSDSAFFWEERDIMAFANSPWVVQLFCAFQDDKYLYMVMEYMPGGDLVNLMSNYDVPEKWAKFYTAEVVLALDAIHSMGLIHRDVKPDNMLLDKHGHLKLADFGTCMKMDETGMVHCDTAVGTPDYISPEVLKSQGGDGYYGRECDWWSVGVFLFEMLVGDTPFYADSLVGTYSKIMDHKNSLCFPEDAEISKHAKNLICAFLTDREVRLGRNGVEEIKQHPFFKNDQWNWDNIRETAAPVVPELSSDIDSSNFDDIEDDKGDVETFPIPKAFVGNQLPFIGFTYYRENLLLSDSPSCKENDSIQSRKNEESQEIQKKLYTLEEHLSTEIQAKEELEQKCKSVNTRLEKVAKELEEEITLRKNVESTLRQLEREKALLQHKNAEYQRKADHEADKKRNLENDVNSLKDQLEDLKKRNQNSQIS

Q: What does the source list for `Nc1cccc(CN2CCC(Nc3cccc4cnccc34)C2)c1` (centres unmarked) [Example 17, N5-[1-(3-Aminobenzyl)tetrahydro-1H-3-pyrrolyl]-5-isoquinolylamine]?
A: inhibition at 10 µg/mL [1]: 94%; IC50 [2]: 0.28 µM; Inhibition (%) (Rho kinase; blood collected 3 hr after administration): 57%

Q: What does the source list for `Nc1cccc(CN2CC[C@H](Nc3cccc4cnccc34)C2)c1` [Example 45, (3S)-N5-[1-(3-Aminobenzyl)tetrahydro-1H-3-pyrrolyl]-5-isoquinolineamine]?
A: inhibition at 10 µg/mL [1]: 74%; IC50 [2]: 0.31 µM; Blood pressure depression (%) [3]: 10.2 ± 3.1%; Inhibition (%) (Rho kinase; [5]): 17* %; Protein level of urine [4, 6]: 779.4 ± 133.9 mg/kg, body weight; Protein level of urine [4, 7]: 91.2 ± 21.5 mg/kg, body weight; Number of cells (ED-1 positive cells per glomerulus) [4]: 2.20 ± 0.65

Q: For `Nc1cccc(CN2CC[C@@H](Nc3cccc4cnccc34)C2)c1` [Example 46, (3R)-N5-[1-(3-Aminobenzyl)tetrahydro-1H-3-pyrrolyl]-5-isoquinolineamine], which inhibition at 10 µg/mL [1] is on record?
A: 104%

Q: What about the IC50 [2] of the same compound?
A: 0.023 µM

Q: And the “Blood pressure depression (%)” value [3]?
A: 25.1 ± 4.4%

Q: What about the “Inhibition (%)” value (Rho kinase; [5]) of the same compound?
A: 42* %

Q: What about the “Protein level of urine” value [4, 6] of the same compound?
A: 327.6 ± 55.2 mg/kg, body weight

Q: What about the “Protein level of urine” value [4, 7] of the same compound?
A: 73.6 ± 9.1 mg/kg, body weight

Q: What about the “Number of cells (ED-1 positive cells per glomerulus)” value [4] of the same compound?
A: 1.38 ± 0.68
